Tests used:
[1] = system: Human immunodeficiency virus 1; assay: Antiviral activity against Human immunodeficiency virus 1 clone 9 harboring integrase S17N, I84I, T124N, T125A, M154I, A175T, S195C mutant gene relative to wild type HIV1; type: functional
[2] = system: Human immunodeficiency virus 1; assay: Antiviral activity against Human immunodeficiency virus 1 clone 12 harboring integrase E11D, S17T, L45V, M50T, I72V, L74I, K111T, S119G, T125A relative to wild type HIV1; type: functional
[3] = system: Human immunodeficiency virus 1; assay: Antiviral activity against Human immunodeficiency virus 1 clone 18_13 harboring integrase G140S mutant and G140S, Q148H site-directed mutation relative to wild type HIV1; type: functional
[4] = system: Human immunodeficiency virus 1; assay: Antiviral activity against Human immunodeficiency virus 1 clone 4 harboring integrase R20K, A23V, T124N, I141V, G193E, V201I, T206S, I220V, D279G mutant gene relative to wild type HIV1; type: functional
[5] = system: Human immunodeficiency virus 1; assay: Antiviral activity against Human immunodeficiency virus 1 3B harboring integrase L74M mutant infected in human MT4 cells assessed as inhibition of virus induced cytopathic effect relative to wild type HIV1; type: functional
[6] = system: Human immunodeficiency virus 1; assay: Antiviral activity against Human immunodeficiency virus 1 clone 15_12 harboring integrase Y143R site-directed mutation relative to wild type HIV1; type: functional
[7] = system: Human immunodeficiency virus 1; assay: Antiviral activity against Human immunodeficiency virus 1 clone 1 harboring integrase E11D, S17T, L45V, M50I, M50T, I72V, L74I, K111T, S119G, T125A relative to wild type HIV1; type: functional
[8] = system: Human immunodeficiency virus 1; assay: Antiviral activity against Human immunodeficiency virus 1 clone 2 harboring integrase S17N, I84I, T124N, T125A, M154I, E157K, S195C mutant gene relative to wild type HIV1; type: functional
[9] = system: Human immunodeficiency virus 1; assay: Antiviral activity against Human immunodeficiency virus 1 clone 15_19 harboring integrase E11D, S17T, L45V, M50T, I72V, L74I, T97A, K111T, S119G, T125A infected in human MT4 cells assessed as inhibition of virus induced cytopathic effect relative to wild type HIV1; type: functional
[10] = system: Human immunodeficiency virus 1; assay: Antiviral activity against Human immunodeficiency virus 1 clone 16 harboring integrase E11D, S17T, L45V, M50T, I72V, L74I, K111T, T125A relative to wild type HIV1; type: functional
[11] = system: Human immunodeficiency virus 1; assay: Antiviral activity against Human immunodeficiency virus 1 clone 16 harboring integrase R20K, A23V, M50I, T124N, G193E, V201I, T206S, I220V, D279G mutant gene relative to wild type HIV1; type: functional
[12] = system: Human immunodeficiency virus 1; assay: Antiviral activity against Human immunodeficiency virus 1 3B harboring integrase L68V mutant infected in human MT4 cells assessed as inhibition of virus induced cytopathic effect relative to wild type HIV1; type: functional
[13] = system: Human immunodeficiency virus 1; assay: Antiviral activity against Human immunodeficiency virus 1 3B harboring integrase E92G mutant infected in human MT4 cells assessed as inhibition of virus induced cytopathic effect relative to wild type HIV1; type: functional
[14] = system: Human immunodeficiency virus 1; assay: Antiviral activity against Human immunodeficiency virus 1 clone 3 harboring integrase R20K, A23V, T124N, I141V, G193E, V201I, T206S, I220V, M275Vmutant gene relative to wild type HIV1; type: functional
[15] = system: Human immunodeficiency virus 1; assay: Antiviral activity against Human immunodeficiency virus 1 3B harboring integrase V165I mutant infected in human MT4 cells assessed as inhibition of virus induced cytopathic effect relative to wild type HIV1; type: functional
[16] = system: Human immunodeficiency virus 1; assay: Antiviral activity against Human immunodeficiency virus 1 3B harboring integrase K156N mutant infected in human MT4 cells assessed as inhibition of virus induced cytopathic effect relative to wild type HIV1; type: functional
[17] = system: Human immunodeficiency virus 1; assay: Antiviral activity against Human immunodeficiency virus 1 clone 19 harboring integrase E11D, S17T, L45V, M50T, I72V, L74I, T97A, K111T, S119G, T125A relative to wild type HIV1; type: functional
[18] = system: Human immunodeficiency virus 1; assay: Antiviral activity against Human immunodeficiency virus 1 clone 19 harboring integrase R20K, A23V, G70E, T124N, I141V, G193E, V201I, T206S, I220V mutant gene relative to wild type HIV1; type: functional
[19] = system: Human immunodeficiency virus 1; assay: Antiviral activity against Human immunodeficiency virus 1 3B harboring integrase S119G mutant infected in human MT4 cells assessed as inhibition of virus induced cytopathic effect relative to wild type HIV1; type: functional
[20] = system: Human immunodeficiency virus 1; assay: Antiviral activity against Human immunodeficiency virus 1 clone 17 harboring integrase R20K, A23V, T124N,A129T, I141V, I62T, G193E, V201I, T206S, I220V, D279G mutant gene relative to wild type HIV1; type: functional
[21] = system: Human immunodeficiency virus 1; assay: Antiviral activity against Human immunodeficiency virus 1 clone 13 harboring integrase R20K, A23V, T124N, G193E, V201I, T206S, I268V, I220V mutant gene relative to wild type HIV1; type: functional
[22] = system: Human immunodeficiency virus 1; assay: Antiviral activity against Human immunodeficiency virus 1 clone 5 harboring integrase E11D, S17T, S39G, L45V, M50I, I72V, L74I, K111T, S119G, T125A relative to wild type HIV1; type: functional
[23] = system: Human immunodeficiency virus 1; assay: Antiviral activity against Human immunodeficiency virus 1 clone 2 harboring integrase R20K, A23V, E92G, T124N, I141V, G193E, V201I, T206S, I220V, D279G mutant gene relative to wild type HIV1; type: functional
[24] = system: Human immunodeficiency virus 1; assay: Antiviral activity against Human immunodeficiency virus 1 clone 18 harboring integrase S17N, I84I, T124N, T125A, M154I, S195C, V201I, S230G mutant gene relative to wild type HIV1; type: functional
[25] = system: Human immunodeficiency virus 1; assay: Antiviral activity against Human immunodeficiency virus 1 clone 15_7 harboring integrase E11D, S17T, L45V, M50T, I72V, L74I, T97A, K111T, S119G, T125A infected in human MT4 cells assessed as inhibition of virus induced cytopathic effect relative to wild type HIV1; type: functional
[26] = system: Human immunodeficiency virus 1; assay: Antiviral activity against Human immunodeficiency virus 1 clone 3 harboring integrase S17N, I84I, T124N, T125A, M154I, S195C mutant gene relative to wild type HIV1; type: functional
[27] = system: Human immunodeficiency virus 1; assay: Antiviral activity against Human immunodeficiency virus 1 clone 15_19 harboring integrase T97A mutant and T97A, Y143R site-directed mutation relative to wild type HIV1; type: functional
[28] = system: Human immunodeficiency virus 1; assay: Antiviral activity against Human immunodeficiency virus 1 3B harboring integrase T66I mutant infected in human MT4 cells assessed as inhibition of virus induced cytopathic effect relative to wild type HIV1; type: functional
[29] = system: Human immunodeficiency virus 1; assay: Antiviral activity against Human immunodeficiency virus 1 3B harboring integrase E92Q mutant infected in human MT4 cells assessed as inhibition of virus induced cytopathic effect relative to wild type HIV1; type: functional
[30] = system: Human immunodeficiency virus 1; assay: Antiviral activity against Human immunodeficiency virus 1 3B infected in human MT4 cells assessed as inhibition of virus induced cytopathic effect; type: functional, organism-based
[31] = system: Human immunodeficiency virus 1; assay: Antiviral activity against Human immunodeficiency virus 1 clone 18_13 harboring integrase S17N, T124N, T125A, G140S, M154I, S195C infected in human MT4 cells assessed as inhibition of virus induced cytopathic effect relative to wild type HIV1; type: functional
[32] = system: Human immunodeficiency virus 1; assay: Antiviral activity against Human immunodeficiency virus 1 clone 15_7 harboring integrase T97A mutant and T97A, Y143R site-directed mutation relative to wild type HIV1; type: functional

Row | SMILES | fold change (FC) [1] | fold change (FC) [2] | fold change (FC) [3] | fold change (FC) [4] | fold change (FC) [5] | fold change (FC) [6] | fold change (FC) [7] | fold change (FC) [8] | fold change (FC) [9] | fold change (FC) [10] | fold change (FC) [11] | fold change (FC) [12] | fold change (FC) [13] | fold change (FC) [14] | fold change (FC) [15] | fold change (FC) [16] | fold change (FC) [17] | fold change (FC) [18] | fold change (FC) [19] | fold change (FC) [20] | other results
1 | Cc1nnc(C(=O)NC(C)(C)c2nc(C(=O)NCc3ccc(F)cc3)c(O)c(=O)n2C)o1 [RALTEGRAVIR] | 1.1 | 1.1 | 768 | 0.2 | 0.9 | 13.1 | 1.7 | 1.1 | 1.7 | 1.2 | 0.8 | 0.4 | 1.8 | 0.5 | 0.7 | 0.4 | 1.7 | 1.2 | 1.1 | 0.3 | fold change (FC) [21]: 0.8; fold change (FC) [22]: 0.7; fold change (FC) [23]: 1.8; fold change (FC) [24]: 1.3; fold change (FC) [25]: 1.5; fold change (FC) [26]: 0.8; fold change (FC) [27]: 88.2; fold change (FC) [28]: 0.8; fold change (FC) [29]: 3.8; EC50 [30]: 6.1 nM; fold change (FC) [31]: 2.4; fold change (FC) [32]: 91.6
2 | COc1cc2c(cc1Cc1cccc(Cl)c1F)c(=O)c(C(=O)O)cn2[C@H](CO)C(C)C [ELVITEGRAVIR] | 1.3 | 1 | >633.7 | 0.7 | 0.7 | 4.2 | 1.4 | 1.1 | 2.5 | 0.5 | 0.7 | 1.1 | 13 | 0.7 | 0.8 | 0.7 | 2.5 | 1.1 | 1 | 0.3 | fold change (FC) [21]: 0.8; fold change (FC) [22]: 0.3; fold change (FC) [23]: 13; fold change (FC) [24]: 0.8; fold change (FC) [25]: 2.7; fold change (FC) [26]: 0.6; fold change (FC) [27]: 9.4; fold change (FC) [28]: 10.5; fold change (FC) [29]: 20.8; EC50 [30]: 11.6 nM; fold change (FC) [31]: 5.6; fold change (FC) [32]: 14.6

From ChEMBL document CHEMBL1687760, “Secondary integrase resistance mutations found in HIV-1 minority quasispecies in integrase therapy-naive patients have little or no effect on susceptibility to integrase inhibitors” (Antimicrob Agents Chemother, 2010)
